The structures appear in SMILES notation. Bounds are passed on as bounds.

This test deals with T1, full-length human Mineralocorticoid Receptor (MR) (Homo sapiens, UniProt P08235).
T1 construct: full-length human Mineralocorticoid Receptor (MR); host or cells: PathHunter CHO-K1 cells
T1 sequence (P08235 1-984): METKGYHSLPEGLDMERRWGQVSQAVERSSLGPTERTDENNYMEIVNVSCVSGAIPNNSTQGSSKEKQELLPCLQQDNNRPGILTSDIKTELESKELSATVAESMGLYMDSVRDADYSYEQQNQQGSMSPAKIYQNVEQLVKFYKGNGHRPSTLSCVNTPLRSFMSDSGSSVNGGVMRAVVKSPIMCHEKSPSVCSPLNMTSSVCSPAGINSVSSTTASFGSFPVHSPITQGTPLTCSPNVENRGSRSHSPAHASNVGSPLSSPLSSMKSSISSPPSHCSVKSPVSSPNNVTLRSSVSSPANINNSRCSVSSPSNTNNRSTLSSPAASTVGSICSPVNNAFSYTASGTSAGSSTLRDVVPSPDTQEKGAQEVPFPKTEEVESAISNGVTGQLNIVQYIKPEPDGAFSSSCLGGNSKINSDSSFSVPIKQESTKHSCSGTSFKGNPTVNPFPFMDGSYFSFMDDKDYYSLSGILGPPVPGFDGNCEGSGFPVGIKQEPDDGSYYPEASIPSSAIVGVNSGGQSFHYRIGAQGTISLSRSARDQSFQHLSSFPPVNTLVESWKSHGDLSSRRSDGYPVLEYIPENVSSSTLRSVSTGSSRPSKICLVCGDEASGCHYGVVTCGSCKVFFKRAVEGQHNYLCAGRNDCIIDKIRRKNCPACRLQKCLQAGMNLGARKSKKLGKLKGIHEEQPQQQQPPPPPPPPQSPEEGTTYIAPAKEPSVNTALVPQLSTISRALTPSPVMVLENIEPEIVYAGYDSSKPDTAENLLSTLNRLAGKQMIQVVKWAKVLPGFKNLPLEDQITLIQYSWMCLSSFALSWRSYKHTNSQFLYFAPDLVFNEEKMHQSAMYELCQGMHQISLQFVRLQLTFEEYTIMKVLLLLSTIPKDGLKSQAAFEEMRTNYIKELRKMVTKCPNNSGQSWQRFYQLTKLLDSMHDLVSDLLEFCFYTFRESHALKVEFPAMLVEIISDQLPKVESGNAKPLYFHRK
The test can be described thus: human MR NH Pro assay (PathHunter Protein:Protein interaction assay, MR antagonism). Type of test: cell-based. The conditions noted are these: PathHunter CHO-K1 cells that overexpress human MR; aldosterone (0.3 nM), 6 hours at 37° C.; antagonist mode; read-out: IC50 rating. As to the method: The activity of the compounds of the present invention regarding mineralocorticoid receptor antagonism was evaluated using the following assay.
Assessment of Mr Potency in HMR NH Pro Assay
The human MR NH Pro assay is a commercially available PathHunter™ Protein:Protein interaction assay (DiscoveRx; http://www.discoverx.com/nhrs/prod-nhrs.php) that measures the ability of compounds to antagonize full-length human Mineralocorticoid Receptor (MR) binding to a coactivator peptide. PathHunter™ CHO—K1 cells that overexpress human MR (Cat #93-0456C2, Lot No: 09B0913) were cultured in growth media (F12K w/Glutamine and phenol red (Gibco 11765-047) supplemented with 10% HI FBS (Gibco 16000); 0.25 mg/ml Hygromycin in PBS (Invitrogen 10687-010, 50 mg/ml); 100 I.U./mL and 100 μg/mL Pen/Strep (Gibco 15140-122); 0.6 mg/mL Geneticin).
Compounds were assessed for MR antagonist activity by incubating the cells with a titrating dose of compound in F12K w/Glutamine and phenol red culture media (Invitrogen 11765-047) supplemented with 1% Charcoal/Dextran Treated FBS (Hyclone #SH30068.01) and aldosterone (0.3 nM) for 6 hours at 37° C. […] Growth Media: • F12K w/Glutamine and phenol red (Gibco 11765-047) • 10% HI FBS (Gibco 16000) • 0.25 mg/ml Hygromycin in PBS (Invitrogen 10687-010, 50 mg/ml) • 100 I.U./mL and 100 μg/mL Pen/Strep (Gibco 15140-122) • 0.6 mg/mL Geneticin (Gibco 10131, 50 mg/ml) • 2. Assay Media: • F12K w/Glutamine and phenol red (Invitrogen 11765-047) • 1% Charcoal/Dextran Treated FBS (Hyclone #SH30068.01) • 3. 3× PathHunter Detection Reagents (Cat#93-0001) (need ˜6 ml/plate). […] Control Agonist:Aldosterone:Sigma cat# A9477 • Prepare stock solution-10 μM in DMSO kept at −20° C. • for assay, dilute in assay media to 1.8 or 6 nM (6× of final concentration=about 0.3 nM to about 1.0 nM) • 5. Cell line: PathHunter CHO—K1 MR cells Cat #93-0456C2, Lot No: 09B0913, from operation liquid nitrogen stock. • 6. Control Antagonist:Spironolactone:Sigma #S-3378 and Eplerenone Sigma #107724-20-9 (10 mM stock concentration also prepared in DMSO and stored at −20° C.). • Methods: • Assay Set up and Calculations: • 1. Cells were grown in F12+FBS+Hygromycin+pen/strep+Genetin • 2. Cells were collected with 0.05% trypsin and the cell suspension was spun and resuspended in a volume of F12+1.5% CD-FBS and counted. • 3. The cells were resuspended to 4×10^5 cells/mL. • 4. Cells were (25 μL/well) added to the wells of a 384 well plate. • 5. The plate was then incubated at 37° C. over night in a humidified incubator with 5% CO2. • 6. Test compounds were titrated starting at 4.4 mM, 10-point titration in 1:3 dilution. • 7. Aldosterone was diluted in assay media to 1.8 nM or 6 nM from 10 μM stock (final concentration to be about 0.3 nM to about 1.0 nM). • Protocol for 384 Well Plate Format: 6 Hr Treatment: • 1. Plated 10K exponentially growing cells/well (25 μL) resuspended in assay media to each well using the Multidrop (Thermo Electron) (use white wall, clear bottom assay plates (Costar #3570) and incubate overnight at 37° C., 5% CO2. • 2. 0.25 μL 120× test compound (final DMSO concentration should be <1%) was added to each well n=2, 10 point titrations starting at 36.7 μM final concentration. • 3. 5 μL 6× agonist (final aldosterone concentration should be about 0.3 nM to about 1.0 nM) was added to all wells using the PlateMate Plus.
(ThermoFisher) (except those wells in columns 23 and 24) • 4. 5 μL of assay media was added to all wells in column 23 and 24. • 5. Plates were incubated 6 hrs at 37° C., 5% CO2. • 6. 15 μL 3× DiscoveRx detection reagent was added to each well. • 7. Plates were incubated for 1 hour at room temperature (plates stored in the dark). • 8. Plates were read on Envision (PerkinElmer) luminesence plate reader and analyzed using ADA.
By IC50 is commonly meant the concentration at which inhibition is half-maximal. As for `C[C@H](C1CCCCC1)N1C(=O)O[C@](Cc2ccc(F)cc2)(c2nc3ccc(C#N)cc3[nH]2)C1=O` [Compound 18, 2-{3-[(1R)-1-Cyclohexylethyl]-5-(4-fluorobenzyl)-2,4-dioxo-1,3-oxazolidin-5-yl}-1H-benzimidazole-5-carbonitrile], the IC50 fell in the range of 100 to 500 nM. As for `O=C1O[C@](Cc2ccc(F)cc2)(c2nc3ccc(Cl)cc3[nH]2)C(=O)N1[C@@H]1CCc2ccccc21` [Compound 17, 5-(6-Chloro-1H-benzimidazol-2-yl)-3-[(1R)-2,3-dihydro-1H-inden-1-yl]-5-(4-fluorobenzyl)-1,3-oxazolidine-2,4-dione], the figure is 100 to 500 nM; as for `C[C@H](c1ccc(F)c(F)c1)N1C(=O)O[C@](Cc2ccccc2)(c2nc3ccc(Cl)cc3[nH]2)C1=O` [Compound 15, (5R)-5-Benzyl-5-(6-chloro-1H-benzimidazol-2-yl)-3-[(1R)-1-(3,4-difluorophenyl)ethyl]-1,3-oxazolidine-2,4-dione], 100 to 500 nM.

As to `C[C@H](c1ccc(F)cc1)N1C(=O)O[C@](Cc2ccccc2)(c2nc3c(Cl)cc(Cl)cc3[nH]2)C1=O` [Compound 19, (5R)-5-Benzyl-5-(4,6-dichloro-1H-benzimidazol-2-yl)-3-[(1R)-1-(4-fluorophenyl)ethyl]-1,3-oxazolidine-2,4-dione], the IC50 is less than 100 nM.

As to `O=C1O[C@](Cc2ccccc2)(c2nc3ccc(Cl)cc3[nH]2)C(=O)N1[C@@H]1CCc2ccccc21` [Compound 13, (5R)-5-Benzyl-5-(5-chloro-1H-benzimidazol-2-yl)-3-[(1R)-2,3-dihydro-1H-inden-1-yl]-1,3-oxazolidine-2,4-dione], the IC50 lay in the range of 100 to 500 nM. In the case of `C[C@H](c1ccc(F)cc1)N1C(=O)O[C@](Cc2ccccc2)(c2nc3cc(F)c(F)cc3n2C)C1=O` [Compound 37, (5R)-5-Benzyl-5-(5,6-difluoro-1-methyl-1H-benzimidazol-2-yl)-3-[(1R)-1-(4-fluorophenyl)ethyl]-1,3-oxazolidine-2,4-dione] it was 100 to 500 nM.

The record behind these values is patent US9193717B2, “Mineralocorticoid receptor antagonists” (Merck Sharp & Dohme Corp., priority 2011, dated 2015).
